In patent US20160221948A1, “NITROGEN-CONTAINING SATURATED HETEROCYCLIC COMPOUND” (SUMITOMO CHEMICAL COMPANY, LIMITED, priority 2013, published 2016):

Legend:
[1] = test system: SH-SY5Y cells stably expressing human neprilysin/human SSTR4; assay: Neprilysin membrane translocation test using human neprilysin/human SSTR4 coexpressing cells; format: cell-based
Method: Neprilysin Membrane Translocation Test Using Human Neprilysin/Human SSTR4 Coexpressing Cells
SH-SY5Y cells stably expressing human neprilysin/human SSTR4 were seeded to culture plates, and incubated in a 37° C./5% CO2 incubator overnight. On the next day, the compounds involved with the present invention were added, and cells were incubated in the 37° C./5% CO2 incubator another night. On the next day, 4% paraformaldehyde was added, and cells were fixed. The cells were washed, and blocked with 3% BSA solution. Then, immunostaining with an anti-neprilysin antibody and Alexa Fluor 488 donkey anti-mouse IgG was performed, and analyzed with an IN CELL Analyzer.

human SSTR4 = human SSTR4 (Homo sapiens, UniProt P31391); assay: Binding affinity using cell membrane from human SSTR4-expressing Chem-1 cells, [125I] Tyr11-Somatostatin 14; design: expressed in transfected cells; conditions: 0.1 nmol/L [125I] Tyr11-Somatostatin 14, 2 hours at 25° C.
Method: Binding affinity evaluation using cell membrane from human SSTR4-expressing cells
From Chem-1 cells forcibly expressing human SSTR4, cell membrane was prepared by using Hepes Buffer. A reaction solution consisting of the prepared cell membrane, 0.1 nmol/L [^125I] Tyr11-Somatostatin 14, and a test compound was prepared, and incubated for 2 hours at 25° C. The cell membrane after incubation was filtered, and washed. After dried, the filter was immersed in a scintillator, its radioactivity was measured with a scintillation counter. By defining the difference in radioactivity between the substance not containing a test compound and the substance containing 1 μmol/L Somatostatin 14 as the specific binding amount, inhibitory rates of test compounds were calculated. Based on IC50 of the test compound calculated from the inhibition curve, the concentration of [^125I] Tyr11-Somatostatin 14, and Kd of Somatostatin 14, Ki of the test compound was calculated.

SSTR5 = target: T1, SSTR5 (Homo sapiens, UniProt P35346); assay: Binding affinity using cell membrane from cells expressing SSTR subtypes
T1 construct: expressed in transfected cells

Slc:ddY mice = assay: Mouse novel object recognition test (mORT); format: in vivo
Method: Evaluation of cognitive function using mouse novel object recognition test (hereinafter, may be called “mORT”)
In the mORT using Slc:ddY mice (male, Japan SLC, Inc.) with body weight of 25-45 g or 35-40 g, memory deterioration to familiar subject depending on the interval time between the first trial (training) and the second trial (test) is observed. If the second trial is performed 24 hours after performing the first trial, significant forgetting is observed. […] […] (discrimination index as indexes for cognitive function are shown: 0.5% MC receiving group, 0.054±0.026; 3 mg/kg receiving group, 0.245±0.066.)

[2] = 3 mg/kg oral, given after the first trial

Chain of human SSTR4 (P31391 whole entry): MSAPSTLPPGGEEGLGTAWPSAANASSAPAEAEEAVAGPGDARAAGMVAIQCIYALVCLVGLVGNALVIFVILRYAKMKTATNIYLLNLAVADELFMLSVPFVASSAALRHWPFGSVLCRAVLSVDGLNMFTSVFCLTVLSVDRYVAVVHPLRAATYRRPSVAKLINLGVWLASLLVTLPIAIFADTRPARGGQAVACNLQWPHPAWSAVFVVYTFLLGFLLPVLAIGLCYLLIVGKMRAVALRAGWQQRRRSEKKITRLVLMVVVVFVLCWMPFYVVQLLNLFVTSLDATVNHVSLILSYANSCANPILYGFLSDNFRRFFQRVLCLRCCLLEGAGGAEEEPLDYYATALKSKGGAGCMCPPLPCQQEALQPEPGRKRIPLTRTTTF
T1 sequence (P35346 whole entry, species assumed): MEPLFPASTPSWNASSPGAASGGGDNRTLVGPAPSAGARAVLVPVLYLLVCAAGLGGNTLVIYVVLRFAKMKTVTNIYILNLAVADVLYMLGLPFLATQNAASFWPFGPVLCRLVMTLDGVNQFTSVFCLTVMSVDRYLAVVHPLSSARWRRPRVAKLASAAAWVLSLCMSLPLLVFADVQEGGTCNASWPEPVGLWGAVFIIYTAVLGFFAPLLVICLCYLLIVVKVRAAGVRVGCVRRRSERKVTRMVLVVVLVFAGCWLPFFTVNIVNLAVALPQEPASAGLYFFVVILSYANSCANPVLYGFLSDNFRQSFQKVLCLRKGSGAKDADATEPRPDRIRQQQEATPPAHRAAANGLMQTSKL

EC50 ([1]; Homo sapiens, SH-SY5Y, overnight incubation, immunostaining, IN CELL Analyzer): 9.3 nM
Ki (human SSTR4): 21 nM
Ki (SSTR5): > 5 µM
SMILES: CN1CCC[C@H](C(=O)NC(C)(C)c2cc(Cl)ccc2Cl)C1 [Example 21, (3S)—N-[2-(2,5-dichlorophenyl)propane-2-yl]-1-methylpiperidine-3-carboxamide]
translocation of neprilysin to cell membrane [1]: concentration-dependently induced the translocation of neprilysin to cell membrane
memory enhancing action (Slc:ddY mice; 3 mg/kg (oral), administered before the first trial): significant memory enhancing action
discrimination index (Slc:ddY mice; 3 mg/kg oral, administered before the first trial, second trial 24 hours later): 0.214±0.072
discrimination index (Slc:ddY mice; [2]): 0.245±0.066
memory enhancing action (Slc:ddY mice; [2]): significant memory enhancing action
